Measured values reported in PMC10965373 (ChemMedChem, 2024).
Values after ≈ are worked out from the molar mass of the structure shown. Values joined by “and” are separate entries in the source; they are usually repeats but may differ in a detail not shown here. Identical values can stand only once.

Legend:
[1] = system: Mycobacterium abscessus ATCC 19977; settings: in vitro; cited from earlier work
[2] = system: Mycobacterium tuberculosis H37Rv; settings: in vitro; cited from earlier work
[3] = cited from earlier work
[4] = cited from earlier work; remark: listed apart in the source
[5] = Single concentration cytotoxicity against HEK293; settings: human
[6] = In vitro microsomal stability, human microsomal suspension
[7] = In vitro microsomal stability, murine microsomal suspension
[8] = after 4 h of incubation, Medicines for Malaria Venture data; cited from earlier work
[9] = male Sprague Dawley rats; cited from earlier work
[10] = system: human kidney epithelia cells HEK293; assay: Single concentration cytotoxicity against HEK293; settings: HEK293, 50 μM, 24 h, relative to DMSO-treated cells
[11] = 2 μM substrate, 0.42 mg/mL microsomal proteins, 100 mM phosphate buffer pH 7.4
[12] = after 7 min, 2 μM substrate, 0.42 mg/mL microsomal proteins, pH 7.4

SMILES | MIC90 against Mabs [1] | MIC90 against Mtb [2] [µM] | stability during incubation with human liver microsomes [3] | stability during incubation with murine liver microsomes [4] | viability at 24 h, 50 µM [5] [%] | stability in human microsomal suspension ([6]; human microsomal suspension) | stability in murine microsomal suspension ([7]; murine microsomal suspension) | remaining substance in murine plasma [8] [%] | plasma levels after oral administration [9] | relative cell viability [10] [%] | half-life in human microsomal suspension [6, 11] [min] | remaining substance in human microsomal suspension [6, 12] [%] | half-life in murine microsomal suspension [7, 11] [min] | remaining substance in murine microsomal suspension [7, 12] [%]
O=C(N[C@H](Cc1ccccc1)C(=O)Nc1ccccc1N1CCS(=O)(=O)CC1)c1ccccc1F [compound 2, (2R)-2-[(2-fluorophenyl)formamido]-N-[2-(1,1-dioxo-1λ6-thiomorpholin-4-yl)phenyl]-3-phenylpropanamide] | 0.78 µM and < 1 µM | < 1 | highly unstable | highly unstable | 73 | comparably low stabilities | comparably low stabilities |  |  |  |  |  |  | 
O=C(N[C@H](Cc1ccccc1)C(=O)Nc1ccccc1N1CCOCC1)c1cccs1 [MMV] | 6.25 µM (≈ 2.72 µg/mL) |  | highly unstable | highly unstable |  |  |  | 60 | insufficient plasma levels | 67 | 1.2 | 2 | 0.9 | 0
